Laboratory results reported in patent US20100021524A1 (OsteoGeneX Inc., priority 2008, published 2010).
Where a name gives a salt, the structure may show the parent alone.

Assays:
Wnt pathway = test: Modulation of the Wnt pathway to promote bone growth (FIG. 1); conditions: doses of 2.5 ng (low), 125 ng (high) and 1250 ng (very high)
Experimental: For example, the mouse test animal is treated with a predetermined dose of a SOST antagonist candidate for a complete dosing schedule. A control mouse is treated with a control solution, preferably a non-irritating buffer solution or other carrier. Once the dosing schedule has been completed, both test and control animals are examined with sacrifice using micro-CT to determine the quantity of bone formation present.

C57BL/6 mice = test: Bone growth with pimethixene: 30-day daily i.p. treatment, serum osteocalcin (EIA Elisa) and trabecular bone volume (micro-CT); format: in vivo, mouse; conditions: four month old male C57BL/6 mice, daily i.p. for 30 days, FIG. 2
Experimental: Four month old male C57BL/6 mice were treated daily with saline vehicle or the sclerostin inhibitor of pimethixene at several doses (via i.p) for 30 days. Study endpoints included a biochemical marker of bone formation; osteocalcin, measured by EIA Elisa, and measurement of trabecular bone volume by mico-CT analysis on the proximal tibia and spine (lumbar 5).

mouse = test: Mouse bone formation assay for SOST antagonist candidates, examined by micro-CT; format: in vivo; conditions: complete dosing schedule, versus control solution
Description: Compounds useful in the methods of the present invention can be identified via a variety of methods known to one of skill in the art. Several exemplary methods for identifying such antagonists are described herein, including cell-based and in vitro techniques (Journal of Bone and Mineral Research 2006, 21(11), 1738-1749). A general method of identifying SOST antagonists involves evaluating the effects of antagonist candidates on bone formation under controlled conditions. Preferably bone formation is determined using micro-CT techniques on live animals. Preferred animals include rodents, more preferred are primates. Femur, tibia and vertebrae bones are particularly useful subjects for such study.
Briefly, the test animal is treated with a predetermined dose of a SOST antagonist candidate. […]
Once the dosing schedule has been completed, both test and control animals are examined to determine the quantity of bone formation present. […] Where necessary, levels of bone formation can be calculated by determining the volume of bone formation present in each animal. […]
For example, the mouse test animal is treated with a predetermined dose of a SOST antagonist candidate for a complete dosing schedule. […] Once the dosing schedule has been completed, both test and control animals are examined with sacrifice using micro-CT to determine the quantity of bone formation present.

CN1CCC(=C2c3ccccc3Sc3ccccc32)CC1 [pimethixene maleate]
modulating the Wnt pathway to promote bone growth (Wnt pathway): modulating the Wnt pathway to promote bone growth | increase in bone volume for lumbar 5 over baseline controls, μ-CT analysis (C57BL/6 mice; dosed at 0.01 mg/kg, 0.1 mg/kg or 10 mg/kg): greater than 30% | percent increase in serum osteocalcin bone formation marker over saline controls (C57BL/6 mice; dosed between 10 mg/kg and 0.1 mg/kg): 25%

CN1CCC(=C2c3ccccc3Sc3ccccc32)CC1 [pimethixene]
bone growth (quantity of bone formation present, micro-CT) (mouse): promoting bone growth
